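Five concentrations, 48 hours, 96-well plates. GI50 marks 50% less growth. TGI: total growth inhibition.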
Key:
Experiment in all cases: NCI anticancer screen, dose series, 48 h
SR leukemia = tested on: SR leukemia
SK-OV-3 ovarian = tested on: SK-OV-3 ovarian
MDA-MB-435 = tested on: MDA-MB-435
A549 NSCLC = tested on: A549 NSCLC
OVCAR-5 ovarian = tested on: OVCAR-5 ovarian
MCF7 breast = tested on: MCF7 breast
CAKI-1 renal = tested on: CAKI-1 renal
NCI-H460 lung = tested on: NCI-H460 lung
SK-MEL-2 melanoma = tested on: SK-MEL-2 melanoma
T-47D breast = tested on: T-47D breast
HOP-92 NSCLC = tested on: HOP-92 NSCLC
UACC-62 melanoma = tested on: UACC-62 melanoma
SN12C renal = tested on: SN12C renal
SF-295 CNS = tested on: SF-295 CNS
DU-145 prostate = tested on: DU-145 prostate
HT29 colon = tested on: HT29 colon
M14 melanoma = tested on: M14 melanoma
SNB-75 CNS = tested on: SNB-75 CNS
HCC-2998 colon = tested on: HCC-2998 colon
OVCAR-3 ovarian = tested on: OVCAR-3 ovarian
RPMI-8226 leukemia = tested on: RPMI-8226 leukemia
K-562 leukemia = tested on: K-562 leukemia
COLO 205 colon = tested on: COLO 205 colon
HS 578T breast = tested on: HS 578T breast
786-0 renal = tested on: 786-0 renal
PC-3 prostate = tested on: PC-3 prostate
BT-549 breast = tested on: BT-549 breast
KM12 colon = tested on: KM12 colon
A498 renal = tested on: A498 renal
UO-31 renal = tested on: UO-31 renal
EKVX NSCLC = tested on: EKVX NSCLC
SF-268 CNS = tested on: SF-268 CNS
HCT-15 colon = tested on: HCT-15 colon
HOP-62 NSCLC = tested on: HOP-62 NSCLC
ACHN renal = tested on: ACHN renal
MALME-3M melanoma = tested on: MALME-3M melanoma
LOX IMVI melanoma = tested on: LOX IMVI melanoma
OVCAR-4 ovarian = tested on: OVCAR-4 ovarian
UACC-257 melanoma = tested on: UACC-257 melanoma
NCI-H522 lung = tested on: NCI-H522 lung
NCI/ADR-RES ovarian = tested on: NCI/ADR-RES ovarian
CCRF-CEM leukemia = tested on: CCRF-CEM leukemia
NCI-H226 lung = tested on: NCI-H226 lung
SK-MEL-28 melanoma = tested on: SK-MEL-28 melanoma
HCT-116 colon = tested on: HCT-116 colon
NCI-H23 lung = tested on: NCI-H23 lung
OVCAR-8 ovarian = tested on: OVCAR-8 ovarian
TK-10 renal = tested on: TK-10 renal
SNB-19 CNS = tested on: SNB-19 CNS
U251 CNS = tested on: U251 CNS
IGROV1 ovarian = tested on: IGROV1 ovarian
SF-539 CNS = tested on: SF-539 CNS
SW-620 colon = tested on: SW-620 colon
HL-60(TB) leukemia = tested on: HL-60(TB) leukemia
MOLT-4 leukemia = tested on: MOLT-4 leukemia
SK-MEL-5 melanoma = tested on: SK-MEL-5 melanoma
MDA-MB-231 breast = tested on: MDA-MB-231 breast

`CC(C)(C)Nc1nc2c(OCCc3ccccc3)cccn2c1-c1cccc(Oc2ccccc2)c1` was tested, and the GI50 (SR leukemia) was 12.3 µM, the TGI (SR leukemia) was > 100 µM and the GI50 (SK-OV-3 ovarian) was 24.2 µM. The TGI (SK-OV-3 ovarian) was > 100 µM, the GI50 (MDA-MB-435) was 4.97 µM and the TGI (MDA-MB-435) was > 100 µM. The GI50 (A549 NSCLC) was 7.42 µM, the TGI (A549 NSCLC) was > 100 µM and the GI50 (OVCAR-5 ovarian) was 17.8 µM. For the same compound, the TGI (OVCAR-5 ovarian) was > 100 µM, the GI50 (MCF7 breast) was 4.34 µM and the TGI (MCF7 breast) was > 100 µM. The GI50 (CAKI-1 renal) was 9.11 µM, the TGI (CAKI-1 renal) was > 100 µM and the GI50 (NCI-H460 lung) was 4.6 µM. The TGI (NCI-H460 lung) was > 100 µM, the GI50 (SK-MEL-2 melanoma) was 5.16 µM and the TGI (SK-MEL-2 melanoma) was 26.8 µM. The GI50 (T-47D breast) was 3.13 µM, the TGI (T-47D breast) was > 100 µM and the GI50 (HOP-92 NSCLC) was 2.22 µM. The TGI (HOP-92 NSCLC) was 7.08 µM, the GI50 (UACC-62 melanoma) was 3.43 µM and the TGI (UACC-62 melanoma) was 53.8 µM. For the same compound, the GI50 (SN12C renal) was 5.17 µM, the TGI (SN12C renal) was > 100 µM and the GI50 (SF-295 CNS) was 5.54 µM. The TGI (SF-295 CNS) was > 100 µM, the GI50 (DU-145 prostate) was 19.4 µM and the TGI (DU-145 prostate) was > 100 µM. The GI50 (HT29 colon) was 3.75 µM, the TGI (HT29 colon) was > 100 µM and the GI50 (M14 melanoma) was 18.6 µM. The TGI (M14 melanoma) was > 100 µM, the GI50 (SNB-75 CNS) was 5.53 µM and the TGI (SNB-75 CNS) was > 100 µM. The GI50 (HCC-2998 colon) was 6.21 µM, the TGI (HCC-2998 colon) was > 100 µM and the GI50 (OVCAR-3 ovarian) was 3.71 µM. For the same compound, the TGI (OVCAR-3 ovarian) was > 100 µM, the GI50 (RPMI-8226 leukemia) was 3.4 µM and the TGI (RPMI-8226 leukemia) was > 100 µM. For the same compound, the GI50 (K-562 leukemia) was 6.18 µM, the TGI (K-562 leukemia) was > 100 µM and the GI50 (COLO 205 colon) was 12.3 µM. The TGI (COLO 205 colon) was 25.9 µM, the GI50 (HS 578T breast) was 5.51 µM and the TGI (HS 578T breast) was > 100 µM. The GI50 (786-0 renal) was 3.8 µM, the TGI (786-0 renal) was > 100 µM and the GI50 (PC-3 prostate) was 4 µM. For the same compound, the TGI (PC-3 prostate) was > 100 µM, the GI50 (BT-549 breast) was 3.48 µM and the TGI (BT-549 breast) was 29.7 µM. For the same compound, the GI50 (KM12 colon) was 7.42 µM, the TGI (KM12 colon) was > 100 µM and the GI50 (A498 renal) was 8.91 µM. For the same compound, the TGI (A498 renal) was 83.9 µM, the GI50 (UO-31 renal) was 3.13 µM and the TGI (UO-31 renal) was 80.7 µM. For the same compound, the GI50 (EKVX NSCLC) was 4.54 µM, the TGI (EKVX NSCLC) was > 100 µM and the GI50 (SF-268 CNS) was 8.03 µM. For the same compound, the TGI (SF-268 CNS) was > 100 µM, the GI50 (HCT-15 colon) was 3.89 µM and the TGI (HCT-15 colon) was > 100 µM. For the same compound, the GI50 (HOP-62 NSCLC) was 15.1 µM, the TGI (HOP-62 NSCLC) was > 100 µM and the GI50 (ACHN renal) was 7.67 µM. The TGI (ACHN renal) was > 100 µM, the GI50 (MALME-3M melanoma) was 8.12 µM and the TGI (MALME-3M melanoma) was > 100 µM. It also gave a GI50 (LOX IMVI melanoma) of 8.54 µM, a TGI (LOX IMVI melanoma) of 41.2 µM and a GI50 (OVCAR-4 ovarian) of 4 µM. For the same compound, the TGI (OVCAR-4 ovarian) was > 100 µM, the GI50 (UACC-257 melanoma) was 4.1 µM and the TGI (UACC-257 melanoma) was > 100 µM. The GI50 (NCI-H522 lung) was 6.95 µM, the TGI (NCI-H522 lung) was > 100 µM and the GI50 (NCI/ADR-RES ovarian) was 7.51 µM. The TGI (NCI/ADR-RES ovarian) was > 100 µM, the GI50 (CCRF-CEM leukemia) was 7.07 µM and the TGI (CCRF-CEM leukemia) was > 100 µM. The GI50 (NCI-H226 lung) was 3.45 µM, the TGI (NCI-H226 lung) was > 100 µM and the GI50 (SK-MEL-28 melanoma) was 4.87 µM. The TGI (SK-MEL-28 melanoma) was > 100 µM, the GI50 (HCT-116 colon) was 3.42 µM and the TGI (HCT-116 colon) was > 100 µM. For the same compound, the GI50 (NCI-H23 lung) was 5.86 µM, the TGI (NCI-H23 lung) was > 100 µM and the GI50 (OVCAR-8 ovarian) was 14.8 µM. For the same compound, the TGI (OVCAR-8 ovarian) was > 100 µM, the GI50 (TK-10 renal) was 26.9 µM and the TGI (TK-10 renal) was > 100 µM. For the same compound, the GI50 (SNB-19 CNS) was 6.62 µM, the TGI (SNB-19 CNS) was > 100 µM and the GI50 (U251 CNS) was 3.89 µM. For the same compound, the TGI (U251 CNS) was > 100 µM, the GI50 (IGROV1 ovarian) was 12.4 µM and the TGI (IGROV1 ovarian) was > 100 µM. For the same compound, the GI50 (SF-539 CNS) was 16.3 µM, the TGI (SF-539 CNS) was 43.1 µM and the GI50 (SW-620 colon) was 7.97 µM. The TGI (SW-620 colon) was > 100 µM, the GI50 (HL-60(TB) leukemia) was 18.6 µM and the TGI (HL-60(TB) leukemia) was > 100 µM. For the same compound, the GI50 (MOLT-4 leukemia) was 11 µM, the TGI (MOLT-4 leukemia) was > 100 µM and the GI50 (SK-MEL-5 melanoma) was 4.95 µM. It also gave a TGI (SK-MEL-5 melanoma) of 17.6 µM, a GI50 (MDA-MB-231 breast) of 18.7 µM and a TGI (MDA-MB-231 breast) of 83 µM.

— PubChem BioAssay (NCI)
